Publication PMC2654064, “S9, a Novel Anticancer Agent, Exerts Its Anti-Proliferative Activity by Interfering with Both PI3K-Akt-mTOR Signaling and Microtubule Cytoskeleton” (PLoS ONE, 2009)
Like-named read-outs stand apart in the source and are kept apart here.

Columns and labels:
LOVO = test: cells; set-up: SRB anti-proliferation assay against a panel of human tumour cell lines; details: Homo sapiens, LoVo
Description: (§1) The anti-proliferative activity of S9 was measured with SRB assay against a panel of human tumor cells, including oral epidermoid cancer, lung cancer, liver cancer, colon cancer, rhabdomyosarcoma, ovarian cancer, osteosarcoma, breast cancer, cervix cancer, stomach cancer, prostate cancer and leukemia cells. […] This advantage was also observed in the mini-set of colon cancer cell lines (Fig. 6A). […] A) Antiproliferative activity of S9 and wortmannin against a wide panel of tumor cell lines. IC50s plotted as mean±SD (µM) were from three separate experiments. B) Resistance factor (RF) of S9 and reference compounds in drug-resistant cancer cells. RF was calculated as the ratio of the IC50 value of the drug-resistant cells to that of the corresponding parental cells. C) S9 induces rapid apoptosis in human cancer cells. Rh30, A375, MKN-28 and U2OS cells were treated with S9 for 8 h. Apoptosis was measured by Annexin V-PI double staining. Apoptosis measured as Annexin-V positive cells were plotted. Data shown were mean±SD from three independent experiments. D) Rh30 (left panel) and SMMC7721 (right panel) xenograft growth inhibition after administration of S9. Rh30 and SMMC7721 nude mice were subcutaneously inoculated with a tumor fragment. The animals were randomly divided in groups when tumor volume reached 100 to 200 mm^3 and received i.p. injection of normal saline or S9 five times a week for two weeks. Tumor volumes were measured and relative tumor volumes were calculated as tumor volumeDn/tumor volumeD0. Data shown are the mean of six mice. Human colorectal carcinoma LOVO, human breast carcinoma MDA-MB-468, human prostate carcinoma PC3, human osteosarcoma U2OS cells were from American Type Culture Collection (ATCC, Manassas, VA); human lung adenocarcinoma NCI-H23 cells were obtained from the National Cancer Institute (NCI); rhabdomyosarcoma (RMS) Rh30 cells were generous gift from Dr. P.J. Houghton (St. Jude Children's Research Hospital, Memphis, TN). MDA-MB-468, Rh30, LOVO, NCI-H23 and U2OS cells were grown in RPMI-1640 medium supplemented with 10% (v/v) fetal bovine serum (FBS; GIBCO, Grand Island, NY), 2 mM L-glutamine, 100 U/ml benzylpenicillin, 100 µg/ml streptomycin and 10 mM HEPES (pH 7.4). PC3 cells were grown in Ham's F12 (GIBCO, Grand Island, NY) with 10% FBS. CHO (pCORON1000-EGFP-Akt) was purchased from GE Healthcare (EGFP: Enhanced Green Fluorescence Protein) and propagated in F-12 Ham medium with Glutamax supplemented with 10% FBS, penicillin-streptomycin (50 U/ml) and geneticin (0.5 mg/ml, Sigma-Aldrich, St. Louis, MO). Rest of cells used in this study were grown as described previously. All cells were cultured in a highly humidified atmosphere containing 5% CO2 at 37°C.

K562 = test: cells; set-up: SRB anti-proliferation assay against a panel of human tumour cell lines; details: Homo sapiens, K562
Description: as §1

HL60 = test: cells; set-up: SRB anti-proliferation assay against a panel of human tumour cell lines; details: Homo sapiens, HL-60
Description: as §1

HT-29 = test: cells; set-up: SRB anti-proliferation assay against a panel of human tumour cell lines; details: Homo sapiens, HT-29
Description: as §1

MKN-28 = test: cells; set-up: SRB anti-proliferation assay against a panel of human tumour cell lines; details: Homo sapiens, MKN-28
Description: as §1

HL60/MX2 = test: cells; set-up: SRB anti-proliferation assay against a panel of human tumour cell lines; details: Homo sapiens, HL60/MX2
Description: as §1

KB-8-5-11 = test: cells; set-up: SRB anti-proliferation assay against a panel of human tumour cell lines
Description: as §1

NCI-H23 = test: cells; set-up: SRB anti-proliferation assay against a panel of human tumour cell lines; details: Homo sapiens, NCI-H23
Description: as §1

Rh30 = test: cells; set-up: SRB anti-proliferation assay against a panel of human tumour cell lines; details: Rh30
Description: as §1

HCT-116 = test: cells; set-up: SRB anti-proliferation assay against a panel of human tumour cell lines; details: Homo sapiens, HCT-116
Description: as §1

A549 = test: cells; set-up: SRB anti-proliferation assay against a panel of human tumour cell lines; details: Homo sapiens, A549
Description: as §1

SK-OV-3 = test: cells; set-up: SRB anti-proliferation assay against a panel of human tumour cell lines; details: Homo sapiens, SK-OV-3
Description: as §1

KB-V1 = test: cells; set-up: SRB anti-proliferation assay against a panel of human tumour cell lines; details: Homo sapiens, KB-V1
Description: as §1

Hep-G2 = test: cells; set-up: SRB anti-proliferation assay against a panel of human tumour cell lines; details: Homo sapiens, HepG2
Description: as §1

SGC-7901 = test: cells; set-up: SRB anti-proliferation assay against a panel of human tumour cell lines; details: Homo sapiens, SGC-7901
Description: as §1

U2OS = test: cells; set-up: SRB anti-proliferation assay against a panel of human tumour cell lines; details: Homo sapiens, U2OS
Description: as §1

MDA-MB-468 = test: cells; set-up: SRB anti-proliferation assay against a panel of human tumour cell lines; details: Homo sapiens, MDA-MB-468
Description: as §1

K562/G01 = test: cells; set-up: SRB anti-proliferation assay against a panel of human tumour cell lines; details: Homo sapiens, K562
Description: as §1

KB-3-1 = test: cells; set-up: SRB anti-proliferation assay against a panel of human tumour cell lines; details: Homo sapiens, KB 3-1
Description: as §1

MCF-7/ADR = test: cells; set-up: SRB anti-proliferation assay against a panel of human tumour cell lines; details: Homo sapiens, NCI/ADR-RES
Description: as §1

Rh30/rapa = test: cells; set-up: SRB anti-proliferation assay against a panel of human tumour cell lines; details: Rh30
Description: as §1

BEL-7402 = test: cells; set-up: SRB anti-proliferation assay against a panel of human tumour cell lines; details: Homo sapiens, Bel-7402; read-out: IC50 (μM) S9
Description: as §1

KB-8-5 = test: cells; set-up: SRB anti-proliferation assay against a panel of human tumour cell lines; details: read-out: IC50 (μM) S9
Description: as §1

Hela = test: cells; set-up: SRB anti-proliferation assay against a panel of human tumour cell lines; details: Homo sapiens, HeLa; read-out: IC50 (μM) S9
Description: as §1

MKN-45 = test: cells; set-up: SRB anti-proliferation assay against a panel of human tumour cell lines; details: Homo sapiens, MKN-45; read-out: IC50 (μM) S9
Description: as §1

OV-CAR-5 = test: cells; set-up: SRB anti-proliferation assay against a panel of human tumour cell lines; details: Homo sapiens, OVCAR-5; read-out: IC50 (μM) S9
Description: as §1

PC3 = test: cells; set-up: SRB anti-proliferation assay against a panel of human tumour cell lines; details: Homo sapiens, PC-3; read-out: IC50 (μM) S9
Description: as §1

K562/A02 = test: cells; set-up: SRB anti-proliferation assay against a panel of human tumour cell lines; details: Homo sapiens, K562/A02; read-out: IC50 (μM) S9
Description: as §1

MCF-7 = test: cells; set-up: SRB anti-proliferation assay against a panel of human tumour cell lines; details: Homo sapiens, MCF7; read-out: IC50 (μM) S9
Description: as §1

Rh1 = test: cells; set-up: SRB anti-proliferation assay against a panel of human tumour cell lines; details: Homo sapiens, RH-1; read-out: IC50 (μM) S9
Description: as §1

tubulin = biological target: T1, tubulin; test: SPR (Biacore); supported by colchicine fluorescence competition, polymerization of purified pork tubulin and CD; format: binding, Sus scrofa
T1 construct: gene TUBB; purified tubulin (Cytoskeleton, Denver) immobilized on CM5 chip; with alpha-tubulin

`COC[C@H]1OC(=O)c2coc3c2[C@@]1(C)C1=C(C3=O)[C@@H]2CCC(=O)[C@@]2(C)C[C@H]1OC(C)=O` [wortmannin] was tested, and the IC50 (LOVO; read-out: IC50 (μM) wortmannin) was 12.2 ± 0.42 µM, the IC50 (K562; read-out: IC50 (μM) wortmannin) was 54.8 ± 6.3 µM and the IC50 (HL60; read-out: IC50 (μM) wortmannin) was 7.55 ± 2.84 µM. The IC50 (HT-29; read-out: IC50 (μM) wortmannin) was 18 ± 2.4 µM, the IC50 (MKN-28; read-out: IC50 (μM) wortmannin) was 12.8 ± 2.8 µM and the IC50 (HL60/MX2; read-out: IC50 (μM) wortmannin) was 1.47 ± 0.6 µM. The IC50 (KB-8-5-11; read-out: IC50 (μM) wortmannin) was 15.7 ± 4.1 µM, the IC50 (NCI-H23; read-out: IC50 (μM) wortmannin) was 5.57 ± 1.15 µM and the IC50 (Rh30; read-out: IC50 (μM) wortmannin) was 11 ± 3.02 µM. The IC50 (HCT-116; read-out: IC50 (μM) wortmannin) was 41.5 ± 4.5 µM, the IC50 (A549; read-out: IC50 (μM) wortmannin) was 9.33 ± 6.1 µM and the IC50 (SK-OV-3; read-out: IC50 (μM) wortmannin) was 18 ± 6.3 µM. For the same compound, the IC50 (KB-V1; read-out: IC50 (μM) wortmannin) was 16.8 ± 2.2 µM, the IC50 (Hep-G2; read-out: IC50 (μM) wortmannin) was 12.3 ± 2.6 µM and the IC50 (SGC-7901; read-out: IC50 (μM) wortmannin) was 3.94 ± 1.74 µM. For the same compound, the IC50 (U2OS; read-out: IC50 (μM) wortmannin) was 26.7 ± 4.31 µM, the IC50 (MDA-MB-468; read-out: IC50 (μM) wortmannin) was 29.3 ± 6.6 µM and the IC50 (K562/G01; read-out: IC50 (μM) wortmannin) was 10.4 ± 4.52 µM. For the same compound, the IC50 (KB-3-1; read-out: IC50 (μM) wortmannin) was 27.2 ± 3.2 µM, the IC50 (MCF-7/ADR; read-out: IC50 (μM) wortmannin) was 47.2 ± 6.45 µM and the IC50 (Rh30/rapa; read-out: IC50 (μM) wortmannin) was 0.73 ± 0.51 µM.

`C=C1CC(Cn2c(-c3ccccc3)cc3cc(OCOC)ccc32)OC1=O` (stereo not shown) [S9] showed an IC50 (LOVO; read-out: IC50 (μM) S9) of 5.05 ± 0.5 µM, an IC50 (BEL-7402) of 11.8 ± 1.6 µM and an IC50 (K562; read-out: IC50 (μM) S9) of 2.2 ± 0.33 µM. It also gave an IC50 (KB-8-5) of 28.8 ± 7.3 µM, an IC50 (HL60; read-out: IC50 (μM) S9) of 2.25 ± 0.74 µM and an IC50 (HT-29; read-out: IC50 (μM) S9) of 5.88 ± 0.28 µM. The IC50 (MKN-28; read-out: IC50 (μM) S9) was 2.38 ± 0.39 µM, the IC50 (HL60/MX2; read-out: IC50 (μM) S9) was 2.41 ± 1.28 µM and the IC50 (KB-8-5-11; read-out: IC50 (μM) S9) was 14.9 ± 1.3 µM. The IC50 (NCI-H23; read-out: IC50 (μM) S9) was 9.02 ± 0.05 µM, the IC50 (Rh30; read-out: IC50 (μM) S9) was 3.24 ± 1.2 µM and the IC50 (Hela) was 6.36 ± 1.51 µM. For the same compound, the IC50 (MKN-45) was 2.62 ± 0.26 µM, the IC50 (OV-CAR-5) was 15.4 ± 2.9 µM and the IC50 (HCT-116; read-out: IC50 (μM) S9) was 19.6 ± 1.9 µM. For the same compound, the IC50 (PC3) was 5.34 ± 1.39 µM, the IC50 (A549; read-out: IC50 (μM) S9) was 14.8 ± 2.2 µM and the IC50 (SK-OV-3; read-out: IC50 (μM) S9) was 25.5 ± 0.1 µM. It also gave an IC50 (KB-V1; read-out: IC50 (μM) S9) of 13.3 ± 2.2 µM, an IC50 (K562/A02) of 2.5 ± 0.01 µM and an IC50 (Hep-G2; read-out: IC50 (μM) S9) of 4.55 ± 1.8 µM. For the same compound, the IC50 (MCF-7) was 4.86 ± 1.34 µM, the IC50 (SGC-7901; read-out: IC50 (μM) S9) was 11.6 ± 2.41 µM and the IC50 (U2OS; read-out: IC50 (μM) S9) was 5.9 ± 0.38 µM. It also gave an IC50 (Rh1) of 6.14 ± 0.05 µM, an IC50 (MDA-MB-468; read-out: IC50 (μM) S9) of 14.1 ± 4.6 µM and an IC50 (K562/G01; read-out: IC50 (μM) S9) of 2.17 µM. For the same compound, the IC50 (KB-3-1; read-out: IC50 (μM) S9) was 20.2 ± 3.8 µM, the IC50 (MCF-7/ADR; read-out: IC50 (μM) S9) was 5.73 ± 1.68 µM and the IC50 (Rh30/rapa; read-out: IC50 (μM) S9) was 3.85 ± 0.95 µM. The Kd (tubulin) was 11.1 µM.
